Earlier results in patent US7329659B2, “Substituted-1-phthalazinamines as vr-1 antagonists” (Merck Sharp & Dohme Limited, priority 2003, dated 2008).

Biological target: VR1 (Rattus norvegicus, UniProt O35433)
Details: Wahl et al., Mol. Pharmacol., 59:9, 2001

VR1, sequence (O35433 whole entry): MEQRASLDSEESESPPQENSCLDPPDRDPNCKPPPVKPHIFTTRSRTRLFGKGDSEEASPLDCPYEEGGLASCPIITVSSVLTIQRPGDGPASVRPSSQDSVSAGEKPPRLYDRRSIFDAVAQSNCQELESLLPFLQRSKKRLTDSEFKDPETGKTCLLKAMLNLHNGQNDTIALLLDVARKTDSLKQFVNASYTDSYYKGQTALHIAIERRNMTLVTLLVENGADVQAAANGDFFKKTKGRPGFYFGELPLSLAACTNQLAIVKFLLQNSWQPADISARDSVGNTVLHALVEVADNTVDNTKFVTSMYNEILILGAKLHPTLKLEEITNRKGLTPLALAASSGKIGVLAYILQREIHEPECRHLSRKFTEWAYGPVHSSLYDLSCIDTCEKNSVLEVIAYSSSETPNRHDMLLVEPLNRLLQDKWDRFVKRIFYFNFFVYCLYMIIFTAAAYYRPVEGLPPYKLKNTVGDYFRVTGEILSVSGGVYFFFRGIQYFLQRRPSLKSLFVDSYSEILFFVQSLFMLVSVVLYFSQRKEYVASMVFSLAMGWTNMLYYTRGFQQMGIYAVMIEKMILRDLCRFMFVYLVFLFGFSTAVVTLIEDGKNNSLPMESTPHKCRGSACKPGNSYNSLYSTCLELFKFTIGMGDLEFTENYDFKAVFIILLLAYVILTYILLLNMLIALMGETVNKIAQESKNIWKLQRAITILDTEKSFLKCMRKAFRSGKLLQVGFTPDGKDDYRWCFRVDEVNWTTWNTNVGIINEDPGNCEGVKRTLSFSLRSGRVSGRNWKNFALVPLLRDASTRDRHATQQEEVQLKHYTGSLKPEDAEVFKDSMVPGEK

Question: With `C=C(C)[C@]12C[C@@H](C)[C@@]34O[C@](Cc5ccccc5)(O[C@@H]1[C@@H]3C=C(COC(=O)Cc1cc(I)c(O)c(OC)c1)C[C@]1(O)C(=O)C(C)=C[C@@H]41)O2` [Iodo-resiniferatoxin] as the compound, how does the “VR1 antagonist potency (in words)” value read?
Answer: nanomolar antagonist of VR1
